Literature values, collected in patent US20050272717A1, “Treatment of aromatase inhibitor therapy-related osteoporosis” (priority 2004, published 2005).

Columns and labels:
bone = conditions: preclinical studies

Cc1c(-c2ccc(O)cc2)n(Cc2ccc(OCCN3CCCCCC3)cc2)c2ccc(O)cc12 [bazedoxifene, 1-[4-(2-azepan-1-yl-ethoxy)-benzyl]-2-(4-hydroxy-phenyl)-3-methyl-1H-indol-5-ol]
estradiol-stimulated proliferation of breast cancer cells (breast cancer cells): inhibits | compressive bone strength (bone): improved | histomorphometric profile (bone; compared with raloxifene): superior to that of raloxifene
